Literature values, collected in publication PMC10005815 (Journal of Medicinal Chemistry, 2023).
Where two headings read alike, the source gives them in different places. * marks the point of attachment. Cbz = O=C(OCc1ccccc1)*

How the values were obtained:
[1] = target: SARS-CoV-2 M^pro
[2] = rat, in vivo
[3] = target: SARS-CoV-1 M^pro; settings: for Ki: read-out: SARS-CoV-1 M^pro Ki
[4] = system: MERS-CoV
[5] = system: HCoV-NL63 M^pro
[6] = system: HCoV-229E; settings: for EC50: read-out: HCoV-229E EC50
[7] = system: SARS-CoV-1
[8] = system: SARS-CoV-1 replicon
[9] = system: SARS-CoV-2
[10] = system: Ebola
[11] = target: RdRp from SARS-CoV-2; settings: read-out: Predicted Ki for binding to the protein active site
[12] = system: SARS-CoV-1; settings: mouse, in vivo
[13] = system: Vero cells
[14] = system: SARS-CoV-2 PsV
[15] = system: TMPRSS2
[16] = target: TMPRSS2; remark: listed apart in the source
[17] = system: SARS-CoV-2 Omicron BA.1 and BA.2; settings: in vivo
[18] = target: HCoV-229E M^pro
[19] = system: MERS-CoV S protein-mediated cell–cell fusion; settings: read-out: IC50 in vitro fusion assay (MERS-CoV)
[20] = system: panel of proteases; settings: read-out: IC50 proteases (selectivity panel)
[21] = system: Vero E6/TMPRSS2 cells
[22] = system: HCoV-OC43; settings: read-out: HCoV-OC43 EC90
[23] = system: SARS-CoV-1 PL^pro
[24] = target: Akt
[25] = buffer
[26] = system: COVID-19; settings: human, in vivo
[27] = system: Vero E6 cells
[28] = system: human mitochondrial RNA polymerase (h-mtRNAP)
[29] = read-out: SARS-CoV-1 M^pro IC50

COc1cccc2[nH]c(C(=O)N[C@@H](CC(C)C)C(=O)N[C@@H](C[C@@H]3CCNC3=O)C(=O)c3nc4ccccc4s3)cc12 [5h]
Ki ([1]; read-out: SARS-CoV-2 M^pro Ki): 0.0176 µM
Bioavailability [2]: low bioavailability
Ki [3]: 0.0063 µM

O=C(/C=C/c1ccccc1)N[C@@H](CC1CCCCC1)C(=O)N[C@@H](C[C@@H]1CCNC1=O)C(=O)C(=O)NCc1ccccc1 [11r]
S.I. MERS-CoV (CC50/EC50) [4]: 1.1 × 10^5
IC50 [5]: 12.3 µM
EC50 [6]: 1.8 µM
EC50 ([7]; read-out: SARS-CoV-1 EC50): 2.1 µM
IC50 [3, 29]: 0.71 µM

CC(C)(C)OC(=O)Nc1cccn([C@@H](CC2CC2)C(=O)N[C@@H](C[C@@H]2CCNC2=O)C(=O)C(=O)NCc2ccccc2)c1=O [13b]
EC50 [8]: 1.75 µM
IC50 [3, 29]: 0.9 µM
EC50 ([9]; read-out: SARS-CoV-2 EC50): 4 µM

COc1cccc2[nH]c(C(=O)N[C@@H](CC(C)C)C(=O)N[C@@H](C[C@@H]3CCCNC3=O)C(=O)COC(=O)c3c(C)cc(C)nc3C)cc12 [15l]
IC50 ([1]; read-out: SARS-CoV-2 M^pro IC50): 0.019 µM
EC50 [6]: 0.048 µM

O=C[C@H](C[C@@H]1CCNC1=O)NC(=O)[C@H](Cc1ccccc1)NC(=O)c1cc2ccccc2[nH]1 [18p]
EC50 ([9]; read-out: SARS-CoV-2 EC50): 0.29 µM

O=C(O)C1=CC(=C(c2ccc(O)c(C(=O)O)c2)c2ccc(O)c(C(=O)O)c2)C=CC1=O [ATA, Aurintricarboxylic acid]
Inhibition of mRNA transcription with respect to control [7]: more than 1000 fold
SARS-CoV-1 replication IC50 [7]: 200 mg/L

Cc1cccc(/C=N/Nc2cc(N3CCOCC3)nc(OCCc3ccccn3)n2)c1 [Apilimod]
Concentration preventing EVD infection of several cell lines [10]: ~0.1 µM

COc1ccc2c(c1)[C@@H]1C[C@]1(C(=O)N1[C@@H]3CC[C@H]1CN(C)C3)Cn1c-2c(C2CCCCC2)c2ccc(C(=O)NS(=O)(=O)N(C)C)cc21 [Beclabuvir]
Ki [11]: ~0.05 µM

CN(C)C(=O)COC(=O)Cc1ccc(OC(=O)c2ccc(NC(=N)N)cc2)cc1 [Camostat]
Reduction of MERS-CoV production [4]: 270 fold
Survival rate to SARS-CoV-1 [12]: ~60%

NC1(C(=O)N[C@@H](CCO)c2ccc(Cl)cc2)CCN(c2ncnc3[nH]ccc23)CC1 [Capivasertib]
50% cytotoxicity concentration [13]: 82 µM

CCOC(=O)[C@H]1OC1C(=O)N[C@@H](CC(C)C)C(=O)NCCC(C)C (stereo partly drawn) [E64D]
Reduction in the entry of SARS-CoV-2 PsV [14]: 92.5%

N=C(N)Nc1ccc(C(=O)O)cc1 [GBA, 4-guanidinobenzoic acid]
TMPRSS2 inhibition [15]: inactive

N=C(N)c1cccc(C[C@H](NS(=O)(=O)c2cccc(-c3ccc(Cl)cc3Cl)c2)C(=O)N2CCC(CCN)CC2)c1 [I-432]
Ki [16]: 0.0009 µM

CC(C)C(=O)OC[C@H]1O[C@@H](n2ccc(NO)nc2=O)[C@H](O)[C@@H]1O [Molnupiravir]
Effect on virus titers [17]: only reduced the lung virus titers
Efficacy in inhibiting SARS-CoV-2 replication relative to remdesivir [9]: 5–10 fold

Cc1cc(C(=O)N[C@@H](C)C(=O)N[C@H](C(=O)N[C@@H](CC(C)C)C(=O)N[C@H](/C=C/C(=O)OCc2ccccc2)C[C@@H]2CCNC2=O)C(C)C)no1 [N3]
Ki [18]: 1.67 µM

N=C(N)Nc1ccc(C(=O)Oc2ccc3cc(C(=N)N)ccc3c2)cc1 [Nafamostat]
IC50 [19]: ~0.001 µM

COc1cccc2[nH]c(C(=O)N[C@@H](CC(C)C)C(=O)N[C@@H](C[C@@H]3CCNC3=O)C(=O)CO)cc12 [PF-00835231]
IC50 [20]: > 10 µM
EC50 ([7]; read-out: SARS-CoV-1 EC50): 4.8 µM

CC(C)(C)[C@H](NC(=O)C(F)(F)F)C(=O)N1C[C@H]2[C@@H]([C@H]1C(=O)N[C@H](C#N)C[C@@H]1CCNC1=O)C2(C)C [PF-07321332]
Effect on virus titers [17]: only reduced the lung virus titers

Cn1cnc(Cn2c(=O)[nH]/c(=N\c3cc4cn(C)nc4cc3Cl)n(Cc3cc(F)c(F)cc3F)c2=O)n1 [S-217622]
EC50 ([4]; read-out: MERS-CoV EC50): 1.4 µM
CC50 [21]: > 100 µM
Effect on virus titers [17]: additionally decreased the virus titers in the nasal turbinates
EC90 [22]: 0.074 µM
EC50 [6]: 5.5 µM
EC50 ([7]; read-out: SARS-CoV-1 EC50): 0.21 µM
EC50 ([9]; read-out: SARS-CoV-2 WT strain EC50): 0.37 µM

CCC(C)(C)NC(=O)C(c1ccn(C)c1)N(C(=O)Cn1nnc2ccccc21)c1ccc(NC(C)=O)cc1 (stereo not drawn) [SID24808289]
IC50 [23]: > 60 µM
IC50 [3, 29]: 6.2 µM

CCc1ccccc1NC(=O)CSC(=O)NNC(=O)[C@H](Cc1c[nH]c2ccccc12)NC(=O)OC(C)(C)C [SID-26681509]
Decrease of SARS-CoV-2 pseudovirion entry [14]: about 76%

CC(OC(C)(C)C)[C@H](NC(=O)OCc1ccccc1)C(=O)N[C@@H](CC1CCCCC1)C(=O)N[C@H](C=O)C[C@@H]1CCNC1=O (stereo partly drawn) [TG-0205221]
Ki [18]: 0.068 µM
Ki [3]: 0.053 µM

COc1ccc(C(=O)Nc2cccc(C(F)(F)F)c2)cc1Nc1nc(-c2cccnc2)c2[nH]ccc2n1 [XMU-MP-7]
Kd [24]: 0.0064 µM

CN(C)CCCSc1ccccc1NC(=O)/C=C/c1ccccc1 [cinanserin]
IC50 ([6]; read-out: HCoV-229E IC50 (antiviral assay)): 19 µM
IC50 ([3]; read-out: M^pro IC50): ~5 µM

O=C(On1nnc2ccccc21)c1ccc2[nH]ccc2c1 [compound 8]
Ki [3]: 0.0075 µM

O=C(Oc1cncc(Cl)c1)c1cccc2[nH]ccc12 [compound 10]
EC50 ([7]; read-out: SARS-CoV-1 EC50): 6.9 µM
IC50 [3, 29]: 0.03 µM

O=C(Oc1cncc(Br)c1)c1ccco1 [compound 39]
T1/2 [25]: [drawing 13] 39 SARS-CoV-1 M^pro IC50= 50 nM T1/2 = 119 h, phosphate buffer pH= 7.5
IC50 [3, 29]: 0.05 µM

CCOc1cc2ncc(C#N)c(Nc3ccc(F)c(Cl)c3)c2cc1NC(=O)/C=C/CN(C)C [pelitinib]
EC50 ([9]; read-out: EC50 (antiviral)): 1.25 µM

CCC(CC)COC(=O)[C@H](C)N[P@](=O)(OC[C@H]1O[C@@](C#N)(c2ccc3c(N)ncnn23)[C@H](O)[C@@H]1O)Oc1ccccc1 [remdesivir, Remdesivir]
Reduction of hospitalization compared to placebo [26]: 87%
CC50 [27]: > 100 µM
IC50 ([9]; read-out: SARS-CoV-2 infection IC50): 0.77 µM

N#C[C@@]1(c2ccc3c(N)ncnn23)O[C@H](COP(=O)(O)OP(=O)(O)OP(=O)(O)O)[C@@H](O)[C@H]1O [remdesivir-TP]
Selectivity with respect to ATP [28]: up to 500 fold

Cbz-Val-Phe-aldehyde [MDL28170]
EC50 ([7]; read-out: EC50 neutral red uptake assay): 0.5 µM
